Source: PubChem BioAssay (NCI)
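All cell lines were grown in 96-well plates and treated with compound for 48 hours. Definition used: TGI = concentration required for complete inhibition of growth.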

System: HCT-15 colon
Test: inhibition of tumour cell growth, NCI panel, 48 h

| SMILES | TGI |
| --- | --- |
| COc1ccc2c(c1)[C@@]13CCN4CC5=CCO[C@H]6CC(=O)N2[C@H]1[C@H]6[C@H]5C[C@H]43 | > 100 µM |
| CCC1C(=O)OCc2c1cc1n(c2=O)CCC12OCCO2 (configuration not stated) | > 100 µM |
| NC(=O)NC(=NCc1ccccc1)NCc1ccccc1 | > 100 µM |
| O=C1NC(=S)S/C1=C/c1ccco1 | > 100 µM |

System: SF-268 CNS
Test: inhibition of tumour cell growth, NCI panel, 48 h

| SMILES | TGI |
| --- | --- |
| Cc1c(-c2nc(N)nc(C3CC3)c2C)nc(N)nc1C1CC1 | > 100 µM |
| CC(C)(C)OC(=O)c1ccc(NCc2cc(O)ccc2O)cc1 | 17.3 µM |
| COc1cc(/C=C/C(=O)O)ccc1OS(=O)(=O)O | > 100 µM |
| COc1ccc2c(c1)[C@@]13CCN4CC5=CCO[C@H]6CC(=O)N2[C@H]1[C@H]6[C@H]5C[C@H]43 | > 100 µM |
| CCC1C(=O)OCc2c1cc1n(c2=O)CCC12OCCO2 (configuration not stated) | > 100 µM |
| NC(=O)NC(=NCc1ccccc1)NCc1ccccc1 | > 100 µM |
| O=C1NC(=S)S/C1=C/c1ccco1 | > 100 µM |

System: MCF7 breast
Test: inhibition of tumour cell growth, NCI panel, 48 h

| SMILES | TGI |
| --- | --- |
| Cc1c(-c2nc(N)nc(C3CC3)c2C)nc(N)nc1C1CC1 | > 100 µM |
| CC(C)(C)OC(=O)c1ccc(NCc2cc(O)ccc2O)cc1 | 18.4 µM |
| COc1cc(/C=C/C(=O)O)ccc1OS(=O)(=O)O | > 100 µM |
| COc1ccc2c(c1)[C@@]13CCN4CC5=CCO[C@H]6CC(=O)N2[C@H]1[C@H]6[C@H]5C[C@H]43 | > 100 µM |

System: SN12C renal
Test: inhibition of tumour cell growth, NCI panel, 48 h

| SMILES | TGI |
| --- | --- |
| Cc1c(-c2nc(N)nc(C3CC3)c2C)nc(N)nc1C1CC1 | > 100 µM |
| CC(C)(C)OC(=O)c1ccc(NCc2cc(O)ccc2O)cc1 | 5.28 µM |
| COc1cc(/C=C/C(=O)O)ccc1OS(=O)(=O)O | > 100 µM |
| COc1ccc2c(c1)[C@@]13CCN4CC5=CCO[C@H]6CC(=O)N2[C@H]1[C@H]6[C@H]5C[C@H]43 | > 100 µM |
| CCC1C(=O)OCc2c1cc1n(c2=O)CCC12OCCO2 (configuration not stated) | > 100 µM |
| NC(=O)NC(=NCc1ccccc1)NCc1ccccc1 | > 100 µM |
| O=C1NC(=S)S/C1=C/c1ccco1 | > 100 µM |

System: KM20L2 colon
Test: inhibition of tumour cell growth, NCI panel, 48 h

| SMILES | TGI |
| --- | --- |
| CCC1C(=O)OCc2c1cc1n(c2=O)CCC12OCCO2 (configuration not stated) | > 100 µM |
| NC(=O)NC(=NCc1ccccc1)NCc1ccccc1 | > 100 µM |

System: NCI-H23 lung
Test: inhibition of tumour cell growth, NCI panel, 48 h

| SMILES | TGI |
| --- | --- |
| Cc1c(-c2nc(N)nc(C3CC3)c2C)nc(N)nc1C1CC1 | > 100 µM |
| CC(C)(C)OC(=O)c1ccc(NCc2cc(O)ccc2O)cc1 | 16.8 µM |
| COc1cc(/C=C/C(=O)O)ccc1OS(=O)(=O)O | > 100 µM |
| COc1ccc2c(c1)[C@@]13CCN4CC5=CCO[C@H]6CC(=O)N2[C@H]1[C@H]6[C@H]5C[C@H]43 | > 100 µM |
| CCC1C(=O)OCc2c1cc1n(c2=O)CCC12OCCO2 (configuration not stated) | > 100 µM |
| NC(=O)NC(=NCc1ccccc1)NCc1ccccc1 | > 100 µM |
| O=C1NC(=S)S/C1=C/c1ccco1 | > 100 µM |

System: TK-10 renal
Test: inhibition of tumour cell growth, NCI panel, 48 h

| SMILES | TGI |
| --- | --- |
| Cc1c(-c2nc(N)nc(C3CC3)c2C)nc(N)nc1C1CC1 | > 100 µM |
| CC(C)(C)OC(=O)c1ccc(NCc2cc(O)ccc2O)cc1 | 6.07 µM |
| COc1cc(/C=C/C(=O)O)ccc1OS(=O)(=O)O | > 100 µM |
| COc1ccc2c(c1)[C@@]13CCN4CC5=CCO[C@H]6CC(=O)N2[C@H]1[C@H]6[C@H]5C[C@H]43 | > 100 µM |
| CCC1C(=O)OCc2c1cc1n(c2=O)CCC12OCCO2 (configuration not stated) | > 100 µM |
| NC(=O)NC(=NCc1ccccc1)NCc1ccccc1 | > 100 µM |
| O=C1NC(=S)S/C1=C/c1ccco1 | > 100 µM |

System: A498 renal
Test: inhibition of tumour cell growth, NCI panel, 48 h

| SMILES | TGI |
| --- | --- |
| Cc1c(-c2nc(N)nc(C3CC3)c2C)nc(N)nc1C1CC1 | > 100 µM |
| CC(C)(C)OC(=O)c1ccc(NCc2cc(O)ccc2O)cc1 | 19.5 µM |
| COc1cc(/C=C/C(=O)O)ccc1OS(=O)(=O)O | > 100 µM |
| COc1ccc2c(c1)[C@@]13CCN4CC5=CCO[C@H]6CC(=O)N2[C@H]1[C@H]6[C@H]5C[C@H]43 | > 100 µM |
| CCC1C(=O)OCc2c1cc1n(c2=O)CCC12OCCO2 (configuration not stated) | > 100 µM |
| O=C1NC(=S)S/C1=C/c1ccco1 | 64.3 µM |

System: NCI-H522 lung
Test: inhibition of tumour cell growth, NCI panel, 48 h

| SMILES | TGI |
| --- | --- |
| Cc1c(-c2nc(N)nc(C3CC3)c2C)nc(N)nc1C1CC1 | > 100 µM |
| CC(C)(C)OC(=O)c1ccc(NCc2cc(O)ccc2O)cc1 | 0.557 µM |
| COc1cc(/C=C/C(=O)O)ccc1OS(=O)(=O)O | > 100 µM |
| COc1ccc2c(c1)[C@@]13CCN4CC5=CCO[C@H]6CC(=O)N2[C@H]1[C@H]6[C@H]5C[C@H]43 | > 100 µM |
| CCC1C(=O)OCc2c1cc1n(c2=O)CCC12OCCO2 (configuration not stated) | > 100 µM |
| NC(=O)NC(=NCc1ccccc1)NCc1ccccc1 | > 100 µM |

System: CCRF-CEM leukemia
Test: inhibition of tumour cell growth, NCI panel, 48 h

| SMILES | TGI |
| --- | --- |
| Cc1c(-c2nc(N)nc(C3CC3)c2C)nc(N)nc1C1CC1 | > 100 µM |
| CC(C)(C)OC(=O)c1ccc(NCc2cc(O)ccc2O)cc1 | 3.9 µM |
| COc1cc(/C=C/C(=O)O)ccc1OS(=O)(=O)O | > 100 µM |
| COc1ccc2c(c1)[C@@]13CCN4CC5=CCO[C@H]6CC(=O)N2[C@H]1[C@H]6[C@H]5C[C@H]43 | > 100 µM |
| CCC1C(=O)OCc2c1cc1n(c2=O)CCC12OCCO2 (configuration not stated) | > 100 µM |

System: SNB-78 CNS
Test: inhibition of tumour cell growth, NCI panel, 48 h

| SMILES | TGI |
| --- | --- |
| CCC1C(=O)OCc2c1cc1n(c2=O)CCC12OCCO2 (configuration not stated) | > 100 µM |
| NC(=O)NC(=NCc1ccccc1)NCc1ccccc1 | > 100 µM |

System: HL-60(TB) leukemia
Test: inhibition of tumour cell growth, NCI panel, 48 h

| SMILES | TGI |
| --- | --- |
| Cc1c(-c2nc(N)nc(C3CC3)c2C)nc(N)nc1C1CC1 | > 100 µM |
| CC(C)(C)OC(=O)c1ccc(NCc2cc(O)ccc2O)cc1 | 4.08 µM |
| COc1cc(/C=C/C(=O)O)ccc1OS(=O)(=O)O | > 100 µM |
| COc1ccc2c(c1)[C@@]13CCN4CC5=CCO[C@H]6CC(=O)N2[C@H]1[C@H]6[C@H]5C[C@H]43 | > 100 µM |
| CCC1C(=O)OCc2c1cc1n(c2=O)CCC12OCCO2 (configuration not stated) | > 100 µM |

System: HS 578T breast
Test: inhibition of tumour cell growth, NCI panel, 48 h

| SMILES | TGI |
| --- | --- |
| Cc1c(-c2nc(N)nc(C3CC3)c2C)nc(N)nc1C1CC1 | > 100 µM |
| CC(C)(C)OC(=O)c1ccc(NCc2cc(O)ccc2O)cc1 | 18.6 µM |
| COc1cc(/C=C/C(=O)O)ccc1OS(=O)(=O)O | > 100 µM |
| COc1ccc2c(c1)[C@@]13CCN4CC5=CCO[C@H]6CC(=O)N2[C@H]1[C@H]6[C@H]5C[C@H]43 | > 100 µM |

System: MOLT-4 leukemia
Test: inhibition of tumour cell growth, NCI panel, 48 h

| SMILES | TGI |
| --- | --- |
| Cc1c(-c2nc(N)nc(C3CC3)c2C)nc(N)nc1C1CC1 | > 100 µM |
| CC(C)(C)OC(=O)c1ccc(NCc2cc(O)ccc2O)cc1 | 11.2 µM |
| COc1cc(/C=C/C(=O)O)ccc1OS(=O)(=O)O | > 100 µM |
| COc1ccc2c(c1)[C@@]13CCN4CC5=CCO[C@H]6CC(=O)N2[C@H]1[C@H]6[C@H]5C[C@H]43 | > 100 µM |
| CCC1C(=O)OCc2c1cc1n(c2=O)CCC12OCCO2 (configuration not stated) | > 100 µM |

System: K-562 leukemia
Test: inhibition of tumour cell growth, NCI panel, 48 h

| SMILES | TGI |
| --- | --- |
| Cc1c(-c2nc(N)nc(C3CC3)c2C)nc(N)nc1C1CC1 | > 100 µM |
| CC(C)(C)OC(=O)c1ccc(NCc2cc(O)ccc2O)cc1 | 38.1 µM |
| COc1cc(/C=C/C(=O)O)ccc1OS(=O)(=O)O | > 100 µM |
| CCC1C(=O)OCc2c1cc1n(c2=O)CCC12OCCO2 (configuration not stated) | > 100 µM |

System: T-47D breast
Test: inhibition of tumour cell growth, NCI panel, 48 h

| SMILES | TGI |
| --- | --- |
| Cc1c(-c2nc(N)nc(C3CC3)c2C)nc(N)nc1C1CC1 | > 100 µM |
| CC(C)(C)OC(=O)c1ccc(NCc2cc(O)ccc2O)cc1 | 2.57 µM |
| COc1cc(/C=C/C(=O)O)ccc1OS(=O)(=O)O | > 100 µM |
| COc1ccc2c(c1)[C@@]13CCN4CC5=CCO[C@H]6CC(=O)N2[C@H]1[C@H]6[C@H]5C[C@H]43 | > 100 µM |

System: XF 498 CNS
Test: inhibition of tumour cell growth, NCI panel, 48 h

| SMILES | TGI |
| --- | --- |
| CCC1C(=O)OCc2c1cc1n(c2=O)CCC12OCCO2 (configuration not stated) | > 100 µM |

System: SK-MEL-2 melanoma
Test: inhibition of tumour cell growth, NCI panel, 48 h

| SMILES | TGI |
| --- | --- |
| Cc1c(-c2nc(N)nc(C3CC3)c2C)nc(N)nc1C1CC1 | > 100 µM |
| CC(C)(C)OC(=O)c1ccc(NCc2cc(O)ccc2O)cc1 | 18.8 µM |
| COc1cc(/C=C/C(=O)O)ccc1OS(=O)(=O)O | > 100 µM |
| COc1ccc2c(c1)[C@@]13CCN4CC5=CCO[C@H]6CC(=O)N2[C@H]1[C@H]6[C@H]5C[C@H]43 | > 100 µM |
| CCC1C(=O)OCc2c1cc1n(c2=O)CCC12OCCO2 (configuration not stated) | > 100 µM |
| NC(=O)NC(=NCc1ccccc1)NCc1ccccc1 | > 100 µM |

System: UACC-62 melanoma
Test: inhibition of tumour cell growth, NCI panel, 48 h

| SMILES | TGI |
| --- | --- |
| Cc1c(-c2nc(N)nc(C3CC3)c2C)nc(N)nc1C1CC1 | > 100 µM |
| CC(C)(C)OC(=O)c1ccc(NCc2cc(O)ccc2O)cc1 | 15.9 µM |
| COc1cc(/C=C/C(=O)O)ccc1OS(=O)(=O)O | > 100 µM |
| COc1ccc2c(c1)[C@@]13CCN4CC5=CCO[C@H]6CC(=O)N2[C@H]1[C@H]6[C@H]5C[C@H]43 | > 100 µM |
| CCC1C(=O)OCc2c1cc1n(c2=O)CCC12OCCO2 (configuration not stated) | > 100 µM |
| NC(=O)NC(=NCc1ccccc1)NCc1ccccc1 | > 100 µM |
